This passage reports Ki and IC50 results from patent publication US9079866B2, “Flap modulators” (JANSSEN PHARMACEUTICA NV, priority 2013, dated 2015).

One experiment concerns the target human FLAP (Homo sapiens (Human), UniProt P20292). The experiment in a line: FLAP binding assay (HTRF format). As to conditions: HTRF format. In a few lines:
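Binding of compounds to FLAP read out as HTRF ratio. Values are the mean of two assay plates, each sample run in duplicate per plate.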
In general terms: Time-resolved FRET reads energy transfer from a long-lived donor to a nearby acceptor.

Experiment [1] concerns leukotriene pathway in human whole blood (LTB4 levels). The experiment in a line: Human whole blood assay (A23187-stimulated LTB4). The format is cell-based. As to conditions: Homo sapiens, read-out: LTB4 IC50 1:1. Put shortly: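 Blood (heparin) diluted 1:1 RPMI; compound pre-incubation 15 min, 37° Celsius; A23187 7 μg/mL, 30 min, 37° Celsius; plasma LTB4 by commercial kit. IC50 via 4-parameter equation.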

[2] abbreviates: human FLAP wild type, average of two plates, duplicates.
The mark [3] stands for this setting: human whole blood diluted 1:1 in RPMI, A23187-stimulated LTB4.
Where [4] appears, read: human whole blood diluted 1:1, A23187-stimulated.

Where two headings read alike, the source gives them in different places.

Sequence of human FLAP (P20292 whole entry): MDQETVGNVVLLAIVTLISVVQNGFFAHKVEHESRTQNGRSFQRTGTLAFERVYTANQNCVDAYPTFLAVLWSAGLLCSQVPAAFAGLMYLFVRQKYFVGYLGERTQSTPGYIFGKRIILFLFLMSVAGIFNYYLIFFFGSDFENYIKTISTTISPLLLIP

What is called Ki is a dissociation constant, usually derived from enzyme kinetics or from competition with a known ligand. A low value points to tighter binding. For orientation: IC50 means the point on the concentration scale where inhibition reaches its midpoint. At human FLAP (setting [2]), `CC(NS(=O)(=O)c1ccccc1-c1ccc(-c2cnc(N)cn2)c(F)c1)C(F)(F)F` (racemic) [Example 8, racemic 4′-(5-Aminopyrazin-2-yl)-3′-fluoro-N-(2,2,2-trifluoro-1-methylethyl)biphenyl-2-sulfonamide] showed a Ki of 1 nM. For the same compound, the IC50 in experiment [1] (setting [3]) was 12 nM. The matching figures for `Nc1cnc(-c2ccc(-c3ccccc3S(=O)(=O)NC3CC4CCC3C4)cc2F)cn1` (racemic) [Example 10, racemic (endo)-4′-(5-Aminopyrazin-2-yl)-N-bicyclo[2.2.1]hept-2-yl-3′-fluorobiphenyl-2-sulfonamide]: 3 nM and 53 nM.

With `Nc1cnc(-c2ccc(-c3ccccc3S(=O)(=O)N3CCN4CCCC4C3)cc2F)cn1` (racemic) [Example 61, racemic 5-[3-Fluoro-2′-(hexahydropyrrolo[1,2-a]pyrazin-2(1H)-ylsulfonyl)biphenyl-4-yl]pyrazin-2-amine], the affinity at human FLAP (setting [2]), expressed as Ki, was 11 nM. The half-inhibitory concentration (IC50) in experiment [1] (setting [3]) was 117 nM.

The compound `CC1CN(S(=O)(=O)c2ccccc2-c2ccc(-c3cnc(N)cn3)c(F)c2)CC(C)N1` (racemic) [Example 62, Racemic-5-{2′-[(3,5-Dimethylpiperazin-1-yl)sulfonyl]-3-fluorobiphenyl-4-yl}pyrazin-2-amine] showed a Ki at human FLAP (setting [2]) of 142 nM. In addition, the IC50 in experiment [1] (setting [3]) was 111 nM.

For `Nc1cnc(-c2ccc(-c3ccccc3S(=O)(=O)N3CCCC(CCO)C3)cc2F)cn1` (racemic) [Example 71, racemic-2-(1-{[4′-(5-Aminopyrazin-2-yl)-3′-fluorobiphenyl-2-yl]sulfonyl}piperidin-3-yl)ethanol], the affinity at human FLAP (setting [2]), expressed as Ki, was 2 nM. Besides, the half-inhibitory concentration (IC50) in experiment [1] (setting [3]) was 23 nM. The corresponding values for `Nc1cnc(-c2ccc(-c3ccccc3S(=O)(=O)N3CCCC(N)C3)cc2F)cn1` (racemic) [Example 74, racemic 5-{2′-[(3-Aminopiperidin-1-yl)sulfonyl]-3-fluorobiphenyl-4-yl}pyrazin-2-amine] are 6 nM and 61 nM. The corresponding values for `CC(C)(C)OC(=O)NC1CCCN(S(=O)(=O)c2ccccc2-c2ccc(-c3cnc(N)cn3)c(F)c2)C1` (racemic) [Example 77, racemic tert-Butyl (1-{[4′-(5-aminopyrazin-2-yl)-3′-fluorobiphenyl-2-yl]sulfonyl}piperidin-3-yl)carbamate] are 3 nM and 342 nM. The corresponding values for `Nc1cnc(-c2ccc(-c3ccccc3S(=O)(=O)N[C@H]3CCCC[C@@H]3O)cc2F)cn1` (racemic) [Example 120, Racemic-(trans)-4′-(5-Aminopyrazin-2-yl)-3′-fluoro-N-(2-hydroxycyclohexyl)biphenyl-2-sulfonamide] are 1 nM and 17 nM. As for `Nc1cnc(-c2ccc(-c3ccccc3S(=O)(=O)N[C@@H]3CCCC[C@@H]3CO)cc2F)cn1` (racemic) [Example 122, racemic (cis)-4′-(5-Aminopyrazin-2-yl)-3′-fluoro-N-[2-(hydroxymethyl)cyclohexyl]biphenyl-2-sulfonamide], the Ki on human FLAP (setting [2]) was 1 nM. The IC50 in experiment [1] (setting [3]) was 18 nM. The corresponding values for `NC(=O)C1CCN1S(=O)(=O)c1ccccc1-c1ccc(-c2cnc(N)cn2)c(F)c1` (racemic) [Example 139, Racemic 1-{[4′-(5-Aminopyrazin-2-yl)-3′-fluorobiphenyl-2-yl]sulfonyl}azetidine-2-carboxamide] are 133 nM and 341 nM. The matching figures for `Nc1cnc(-c2ccc(-c3ccccc3S(=O)(=O)N3CCOC(CO)C3)cc2F)cn1` (racemic) [Example 142, racemic (4-{[4′-(5-Aminopyrazin-2-yl)-3′-fluorobiphenyl-2-yl]sulfonyl}morpholin-2-yl)methanol]: 15 nM and 41 nM.

On human FLAP (setting [2]), `Nc1cnc(-c2ccc(-c3ccccc3S(=O)(=O)N3CCC(O)(c4ccccc4)C3)cc2F)cn1` (racemic) [Example 180, racemic 1-{[4′-(5-Aminopyrazin-2-yl)-3′-fluorobiphenyl-2-yl]sulfonyl}-3-phenylpyrrolidin-3-ol] showed a Ki of 2 nM. For the same compound, in experiment [1] (setting [3]), the concentration for half-maximal inhibition (IC50) was 37 nM. The matching figures for `Nc1cnc(-c2ccc(-c3ccccc3S(=O)(=O)N3C[C@H](O)[C@@H](N4CCCC4)C3)cc2F)cn1` (racemic) [Example 186, Racemic-1′-{[4′-(5-Aminopyrazin-2-yl)-3′-fluorobiphenyl-2-yl]sulfonyl}-1,3′-bipyrrolidin-4′-ol]: 19 nM and 21 nM.

On human FLAP (setting [2]), `Nc1cnc(-c2ccc(-c3ccccc3SCC3CNC(=O)O3)cc2F)cn1` (racemic) [Example 203, racemic 5-({[4′-(5-Aminopyrazin-2-yl)-3′-fluorobiphenyl-2-yl]sulfanyl}methyl)-1,3-oxazolidin-2-one] had a Ki of 5 nM. In addition, the IC50 in experiment [1] (setting [3]) turned out to be 52 nM. The corresponding values for `Nc1ncc(-c2ccc(-c3ccccc3S(=O)(=O)N3CCOC(CO)C3)cc2F)cn1` (racemic) [Example 252, racemic (4-{[4′-(2-Aminopyrimidin-5-yl)-3′-fluorobiphenyl-2-yl]sulfonyl}morpholin-2-yl)methanol] are 127 nM and 206 nM. With `Nc1ncc(-c2ccc(-c3ccccc3S(=O)(=O)N[C@H]3CCCC[C@H]3O)cc2F)cn1` (racemic) [Example 259, racemic 4′-(2-Aminopyrimidin-5-yl)-3′-fluoro-N-[(cis)-2-hydroxycyclohexyl]biphenyl-2-sulfonamide], the Ki at human FLAP (setting [2]) came to 5 nM. In addition, the 50% inhibitory concentration (IC50) in experiment [1] (setting [3]) amounted to 34 nM. The matching figures for `Nc1ncc(-c2ccc(-c3ccccc3S(=O)(=O)N[C@H]3CCCC[C@@H]3O)cc2F)cn1` (racemic) [Example 260, racemic 4′-(2-Aminopyrimidin-5-yl)-3′-fluoro-N-[(trans)-2-hydroxycyclohexyl]biphenyl-2-sulfonamide]: 10 nM and 57 nM.

As to `Nc1ncc(-c2ccc(-c3ccccc3S(=O)(=O)N3CCCC(CCO)C3)cc2F)cc1F` (racemic) [Example 671, 2-(1-((4′-(6-Amino-5-fluoropyridin-3-yl)-3′-fluoro-[1,1′-biphenyl]-2-yl)sulfonyl)piperidin-3-yl)ethanol], affinity on human FLAP (wild type FLAP) was put at a Ki of 15.7 nM. The concentration for half-maximal inhibition (IC50) in experiment [1] (setting [4]) was found to be 164 nM. The matching figures for `Nc1ncc(-c2ccc(-c3ccccc3S(=O)(=O)N3CCCC(CO)C3)cc2F)cc1F` (racemic) [Example 672, (1-((4′-(6-Amino-5-fluoropyridin-3-yl)-3′-fluoro-[1,1′-biphenyl]-2-yl)sulfonyl)piperidin-3-yl)methanol]: 13.7 nM and 196 nM. The matching figures for `Nc1cnc(-c2ccc(-c3ccccc3C(=O)N3CCOC(C(F)(F)F)C3)cc2F)cn1` (racemic) [Example 754, racemic 5-(3-Fluoro-2′-{[2-(trifluoromethyl)morpholin-4-yl]carbonyl}biphenyl-4-yl)pyrazin-2-amine]: 69.9 nM and 377 nM.

`N#Cc1cc(Oc2ccccc2-c2ccc(-c3cnc(N)nc3)c(F)c2)ccn1` [Example 538, 4-{[4′-(2-Aminopyrimidin-5-yl)-3′-fluorobiphenyl-2-yl]oxy}pyridine-2-carbonitrile]: in experiment [1] (setting [4]), the IC50 came to 330 nM. Same read-out and setting: the result for `Nc1cnc(-c2ccc(-c3ccc(C(F)(F)F)cc3Oc3ncccn3)cc2F)cn1` [Example 551, 5-[3-Fluoro-2′-(pyrimidin-2-yloxy)-4′-(trifluoromethyl)biphenyl-4-yl]pyrazin-2-amine] reads 21 nM.

Regarding `COc1cc(C(F)(F)F)ccc1-c1ccc(-c2cnc(N)cn2)c(F)c1` [Example 553, 5-[3-Fluoro-2′-methoxy-4′-(trifluoromethyl)biphenyl-4-yl]pyrazin-2-amine], the IC50 in experiment [1] (setting [4]) amounted to 430 nM. For the compound `Nc1nc(-c2ccc(-c3ccccc3S(=O)(=O)N3CCCC3)cc2F)cs1` [Example 579, 4-[3-Fluoro-2′-(pyrrolidin-1-ylsulfonyl)biphenyl-4-yl]-1,3-thiazol-2-amine], the IC50 in experiment [1] (setting [4]) came to 1540 nM. The same measure, in the same setting: the result for `Nc1cnc(-c2ccc(-c3ccccc3O[C@H]3CCCNC3)cc2F)cn1` [Example 634, 5-{3-Fluoro-2′-[(3S)-piperidin-3-yloxy]biphenyl-4-yl}pyrazin-2-amine] reads 1470 nM; that for `C[C@@H]([C@@H](O)c1ccccc1)N(C)S(=O)(=O)c1ccccc1-c1ccc(-c2ccc(N)nc2)c(F)c1` [Example 666, 4′-(6-Aminopyridin-3-yl)-3′-fluoro-N-((1S,2S)-1-hydroxy-1-phenylpropan-2-yl)-N-methyl-[1,1′-biphenyl]-2-sulfonamide], 36.1 nM. As to `CC(=O)NC1CCN(S(=O)(=O)c2ccccc2-c2ccc(-c3cnc(N)c(F)c3)c(F)c2)CC1` [Example 670, N-(1-((4′-(6-Amino-5-fluoropyridin-3-yl)-3′-fluoro-[1,1′-biphenyl]-2-yl)sulfonyl)piperidin-4-yl)acetamide], the half-inhibitory concentration (IC50) in experiment [1] (setting [4]) is 526 nM.

On to `N#Cc1nc(N)cnc1-c1ccc(-c2ccc(C(F)(F)F)cc2S(=O)(=O)N2CCNC(=O)C2)cc1F` [Example 715, 6-Amino-3-{3-fluoro-2′-[(3-oxopiperazin-1-yl)sulfonyl]-4′-(trifluoromethyl)biphenyl-4-yl}pyrazine-2-carbonitrile], for which the half-inhibitory concentration (IC50) in experiment [1] (setting [4]) was 186 nM.

With `CC(C)(C(N)=O)S(=O)(=O)c1ccccc1-c1ccc(-c2cnc(N)cn2)c(F)c1` [Example 736, 2-{[4′-(5-Aminopyrazin-2-yl)-3′-fluorobiphenyl-2-yl]sulfonyl}-2-methylpropanamide], the IC50 in experiment [1] (setting [4]) is 414 nM. On the same count and under the same terms, the result for `N#Cc1nc(N)cnc1-c1ccc(-c2ccccc2Oc2nccc(N)n2)cc1F` [Example 745, 6-Amino-3-{2′-[(4-aminopyrimidin-2-yl)oxy]-3-fluorobiphenyl-4-yl}pyrazine-2-carbonitrile] reads 111 nM.
